According to patent US7317009B2, “Pyrrolopyridazine derivatives” (Astellas Pharma Inc., priority 2003, dated 2008):

Target: U937 Phosphodiesterase IV (PDE IV)
Test: Inhibition of U937 Phosphodiesterase IV (PDE IV)
Assay type: biochemical
Conditions: enzyme preparation from U937 cells, [3H]cAMP SPA assay, CI-930 10 μM added, 30° C. 15 minutes; read-out: IC50, inhibitory activity on PDE-IV
Description: (a) Inhibition of U937 Phosphodiesterase IV (PDE IV)
Cultured U937 cells were washed twice and harvested with phosphate-buffered saline (PBS) by cell-scraper. After centrifugation, the cell pellet was suspended in homogenizing buffer (0.5% deoxycholate [DOC], 5 mM 2-mercaptoethanol, 1 μM leupeptin, 100 μM PMSF, 20 μM p-tosyl-L-lysine-chloromethyl ketone [TLCK] in PBS). The cell suspension was then sonicated for a couple of minutes and homogenized by a glass-Teflon homogenizer with twenty strokes. The homogenate was centrifuged at 200 g for 30 minutes, and the supernatant was further ultra-centrifuged at 100,000×g for 90 minutes (4° C.). […]
PDE4, activity was estimated with a Phosphodiesterase [^3H]cAMP SPA Enzyme Assay System (Amersham Pharmacia Biotech), using a 96 well Opti-plate. […] Radio-activity in each well was counted by a Top Counter. […]
IC50 values of test compounds for the enzyme activity of PDE4 was determined from regression analysis for log-logit conversion values of percent inhibition in the compound-treated tubes compared to that of the control. Percent inhibition was calculated with the following equation: Inhibition (%)={1−(C−B)/(A−B)}×100; in which A, B and C means mean values of radio-activity counts (dpm) of control, blank and the compound-treated tubes, respectively.

Row | IC50 | Structure (SMILES)
1 | < 1000 nM | CCc1ccc2c(-c3ccc(C(N)=O)cc3)c(CCCCCC(=O)O)c(C)nn12 [Example 198, 6-{4-[4-(Aminocarbonyl)phenyl]-7-ethyl-2-methylpyrrolo[1,2-b]pyridazin-3-yl}hexanoic acid]

Tested on: TNF-alpha production in LPS stimulated human peripheral blood mononuclear cells (PBMCs)
Test: Inhibition on TNF-alpha Production in Human Mononuclear Cells
Assay type: cell-based
Conditions: PBMC, LPS 1 μg/mL, 24 hours, TNF-alpha by ELISA, read-out: IC50, TNF-alpha production from stimulated PBMCs
Description: (b) Inhibition on TNF-alpha Production in Human Mononuclear Cells 1. Test Method (1) Human Peripheral Blood Mononuclear Cells (PBMCs) Preparation
Blood (30 ml for each person) was collected from the median cubital vein of healthy volunteer was divided 15 mL each in heparin containing conical tube and the same volume of RPMI1640 was added to each tube. Diluted blood was then piled up to 20 mL of Ficoll-Paque PLUS (Amersham Pharmacia Biotech) in polystyrene centrifuge tube. After centrifugation at 1,600 rpm for 30 minutes, cells gathering in the center area of the gradient were collected by capillary and washed with 40 mL of RPMI1640 in several times with centrifugation at 1,200 rpm for 10 minutes. PBMC finally precipitated were suspended in RPMI1640 containing 1% fetal bovine serum and antibiotics. After cell counting, final suspension at 3×10^6 cells/mL in culture medium was prepared.
Human PBMCs prepared by the density gradient method using Ficoll-Paque PLUS were suspended in the culture medium mentioned above with the concentration of 3×10^6 cells/mL and 0.5 mL of the suspension was sowed into each well of a 24-well culture plate. Cells were incubated in the CO2 incubator for 24 hours with 0.25 mL of LPS in addition of 0.25 mL of concentrations of drugs or vehicle at the start of the incubation. […] TNF-alpha levels in the medium were measured by ELISA. […]

Row | Structure (SMILES) | IC50
2 | CCc1ccc2c(-c3ccc(C(N)=O)cc3)c(CCCCCC(=O)O)c(C)nn12 [Example 198, 6-{4-[4-(Aminocarbonyl)phenyl]-7-ethyl-2-methylpyrrolo[1,2-b]pyridazin-3-yl}hexanoic acid] | < 100 nM

Tested on: not given
Test: not given
Conditions: not given

Row | Structure (SMILES) | melting point
3 | CCc1ccc2c(-c3cccc(Cl)c3)c(C#N)c(-c3ccccc3)nn12 [Example 7, 4-(3-Chlorophenyl)-7-ethyl-2-phenylpyrrolo[1,2-b]pyridazine-3-carbonitrile] | 172 to 173 °C
4 | CCc1ccc2c(-c3cccc(C#N)c3)c3c(nn12)CCC3=O [Example 10, 3-(6-Ethyl-1-oxo-2,3-dihydro-1H-cyclopenta[e]pyrrolo[1,2-b]pyridazin-9-yl)benzonitrile] | 150 to 154 °C
5 | CCc1ccc2c(-c3cccc(C#N)c3)c(CCCCC(=O)Nc3ccccn3)c(-c3ccccc3)nn12 [Example 263, 5-[4-(3-Cyanophenyl)-7-ethyl-2-phenylpyrrolo[1,2-b]pyridazin-3-yl]-N-(2-pyridinyl)pentanamide] | 67 to 70 °C
6 | CCc1ccc2c(-c3cncc(Br)c3)c(CCCCC(=O)NS(C)(=O)=O)c(C)nn12 [Example 267, N-{5-[4-(5-Bromo-3-pyridinyl)-7-ethyl-2-methylpyrrolo[1,2-b]pyridazin-3-yl]pentanoyl}methanesulfonamide] | 124 to 125 °C
7 | CCc1ccc2c(-c3cccc(C#N)c3)c(CCCCC(=O)NC)c(-c3ccccc3)nn12 [Example 278, 5-[4-(3-Cyanophenyl)-7-ethyl-2-phenylpyrrolo[1,2-b]pyridazin-3-yl]-N-methylpentanamide] | 60 °C
8 | CCc1ccc2c(-c3cccc(Cl)c3)c(CCCCC(=O)N3CCOCC3)c(-c3ccccc3)nn12 [Example 279, 4-(3-Chlorophenyl)-7-ethyl-3-[5-(4-morpholinyl)-5-oxopentyl]-2-phenylpyrrolo[1,2-b]pyridazine] | 55 to 58 °C
9 | CCc1ccc2c(-c3cncc(Br)c3)c(CCC(=O)N3CCOCC3)c(C)nn12 [Example 388, 4-(5-bromo-3-pyridinyl)-7-ethyl-2-methyl-3-[3-(4-morpholinyl)-3-oxopropyl]pyrrolo[1,2-b]pyridazine] | 178 to 180 °C
10 | CCc1ccc2c(-c3cncc(Br)c3)c(CCC(=O)NC)c(C)nn12 [Example 389, 3-[4-(5-bromo-3-pyridinyl)-7-ethyl-2-methylpyrrolo[1,2-b]pyridazin-3-yl]-N-methylpropanamide] | 172 to 174 °C
11 | CCc1ccc2c(-c3cncc(Cl)c3)c(CCC(=O)O)c(COC)nn12 [Example 502, 3-[4-(5-chloro-3-pyridinyl)-7-ethyl-2-(methoxymethyl)pyrrolo[1,2-b]pyridazin-3-yl]propanoic acid] | 159 to 160 °C
12 | CCc1ccc2c(-c3cncc(Cl)c3)c(CCCCC(=O)O)c(COC)nn12 [Example 503, 5-[4-(5-chloro-3-pyridinyl)-7-ethyl-2-(methoxymethyl)pyrrolo[1,2-b]pyridazin-3-yl]pentanoic acid] | 118 to 119 °C

The next lines start with the values.

Row | melting point | Structure (SMILES)
13 | 139 to 140 °C | CCc1ccc2c(-c3ccnc(Cl)c3)c(CCCCC(=O)O)c(C)nn12 [Example 94, 5-[4-(2-Chloro-4-pyridinyl)-7-ethyl-2-methylpyrrolo[1,2-b]pyridazin-3-yl]pentanoic acid]
14 | 181 to 182 °C | CCc1ccc2c(-c3cncc(Br)c3)c(CCC(=O)O)c(C)nn12 [Example 135, 3-[4-(5-Bromo-3-pyridinyl)-7-ethyl-2-methylpyrrolo[1,2-b]pyridazin-3-yl]propanoic acid]
15 | 116 to 118 °C | CCOC(=O)CC(=O)Cc1c(C)nn2c(Cl)ccc2c1-c1ccc(F)cc1 [Example 192, Ethyl 4-[7-chloro-4-(4-fluorophenyl)-2-methylpyrrolo[1,2-b]pyridazin-3-yl]-3-oxobutanoate]
16 | 70 to 72 °C | CCc1ccc2c(-c3cccc(Cl)c3)c(CCCCC(=O)NC)c(-c3ccccc3)nn12 [Example 280, 5-[4-(3-Chlorophenyl)-7-ethyl-2-phenylpyrrolo[1,2-b]pyridazin-3-yl]-N-methylpentanamide]
17 | 66 to 69 °C | CCc1ccc2c(-c3cccc(C#N)c3)c(CCCCC(=O)N3CCOCC3)c(-c3ccccc3)nn12 [Example 282, 3-{7-Ethyl-3-[5-(4-morpholinyl)-5-oxopentyl]-2-phenylpyrrolo[1,2-b]pyridazin-4-yl}benzonitrile]
18 | 196.5 to 197.5 °C | CCc1ccc2c(-c3cncc(Br)c3)c(CCC(=O)NS(C)(=O)=O)c(C)nn12 [Example 390, N-{3-[4-(5-bromo-3-pyridinyl)-7-ethyl-2-methylpyrrolo[1,2-b]pyridazin-3-yl]propanoyl}methanesulfonamide]
19 | 122 to 123 °C | CCc1ccc2c(-c3cncc(Br)c3)c(C(=O)OC)c(COC(C)=O)nn12 [Example 429, methyl 2-[(acetyloxy)methyl]-4-(5-bromo-3-pyridinyl)-7-ethylpyrrolo[1,2-b]pyridazine-3-carboxylate]
20 | 111 to 112 °C | CCc1ccc2c(-c3cncc(OC)c3)c(CCCCC(=O)O)c(COC)nn12 [Example 496, 5-[7-ethyl-2-(methoxymethyl)-4-(5-methoxy-3-pyridinyl)pyrrolo[1,2-b]pyridazin-3-yl]pentanoic acid]
21 | 164 to 165 °C | CCc1ccc2c(-c3cncc(OC)c3)c(CCC(=O)O)c(COC)nn12 [Example 498, 3-[7-ethyl-2-(methoxymethyl)-4-(5-methoxy-3-pyridinyl)pyrrolo[1,2-b]pyridazin-3-yl]propanoic acid]
22 | 140 to 141 °C | CCc1ccc2c(-c3cncc(OC)c3)c(CCCC(=O)O)c(COC)nn12 [Example 499, 4-[7-ethyl-2-(methoxymethyl)-4-(5-methoxy-3-pyridinyl)pyrrolo[1,2-b]pyridazin-3-yl]butanoic acid]
23 | 112 to 113 °C | CCc1ccc2c(-c3cncc(Cl)c3)c(CCCC(=O)O)c(COC)nn12 [Example 501, 4-[4-(5-chloro-3-pyridinyl)-7-ethyl-2-(methoxymethyl)pyrrolo[1,2-b]pyridazin-3-yl]butanoic acid]
